Survival, T/C and Activity data for nine molecules are collected here from ChEMBL document CHEMBL3243981, “Antileukemic activity of ungeremine and related compounds. Preparation of analogues of ungeremine by a practical photochemical reaction” (J Med Chem, 1978).

Molecules are shown by their SMILES. Active and inactive are the calls of the source. The calls are words filed in the database; no cut-off is given here.

Data set [1] has as its system P388. Briefly: Antileukemic activity against mouse P388 cells allografted in mouse assessed as host survival at 50 mg/kg administered daily as single dose. In kind it is functional, organism-based. The arrangement: dose 50 mg/kg.
Data set [2] has as its system P388. The data set can be described thus: Antileukemic activity against mouse P388 cells allografted in mouse assessed as host survival at 12.5 mg/kg administered daily as single dose. Format: functional, organism-based. Set-up: dose 12.5 mg/kg.
Data set [3] has as its system P388. The data set can be described thus: Antileukemic activity against mouse P388 cells allografted in mouse assessed as host survival at 6.25 mg/kg administered daily as single dose. In kind it is functional, organism-based. The arrangement: dose 6.25 mg/kg.
The test system of data set [4] is P388. The data set can be described thus: Antileukemic activity against mouse P388 cells allografted in mouse assessed as host survival at 3.13 mg/kg administered daily as single dose. In kind it is functional, organism-based. The arrangement: dose 3.13 mg/kg.
The test system of data set [5] is P388. Briefly: Antileukemic activity against mouse P388 cells allografted in mouse assessed as host survival at 18.8 mg/kg administered daily as single dose. Format: functional, organism-based. The arrangement: dose 18.8 mg/kg.
Data set [6] concerns P388. Briefly: Antileukemic activity against mouse P388 cells allografted in mouse at 25 mg/kg administered daily as single dose relative to control. In kind it is functional.
Data set [7] relates to P388. The data set can be described thus: Antileukemic activity against mouse P388 cells allografted in mouse at 12.5 mg/kg administered daily as single dose relative to control. Format: functional.
Data set [8] deals with P388. Briefly: Antileukemic activity against mouse P388 cells allografted in mouse at 6.25 mg/kg administered daily as single dose relative to control. Format: functional.
The test system of data set [9] is P388. Briefly: Antileukemic activity against mouse P388 cells allografted in mouse at 3.13 mg/kg administered daily as single dose relative to control. In kind it is functional.
For data set [10], the system named is P388. The data set can be described thus: Antileukemic activity against mouse P388 cells allografted in mouse at 18.8 mg/kg administered daily as single dose relative to control. Format: functional.
In data set [11] the test system is Mus musculus. Briefly: Toxicity in mouse allografted with mouse P388 cells assessed as change in body weight at 25 mg/kg administered daily as single dose. The arrangement: dose 25 mg/kg. Conditions: in vivo. In kind it is organism-based.
The test system of data set [12] is Mus musculus. The data set can be described thus: Toxicity in mouse allografted with mouse P388 cells assessed as change in body weight at 12.5 mg/kg administered daily as single dose. Conditions: in vivo. Format: organism-based. Set-up: dose 12.5 mg/kg.
The test system of data set [13] is Mus musculus. Briefly: Toxicity in mouse allografted with mouse P388 cells assessed as change in body weight at 6.25 mg/kg administered daily as single dose. Format: organism-based. Set-up: dose 6.25 mg/kg. The conditions noted are these: in vivo.
The test system of data set [14] is Mus musculus. The data set can be described thus: Toxicity in mouse allografted with mouse P388 cells assessed as change in body weight at 3.13 mg/kg administered daily as single dose. Format: organism-based. The arrangement: dose 3.13 mg/kg. Conditions: in vivo.
In data set [15] the test system is Mus musculus. The data set can be described thus: Toxicity in mouse allografted with mouse P388 cells assessed as change in body weight at 18.8 mg/kg administered daily as single dose. Format: organism-based. Set-up: dose 18.8 mg/kg. The conditions noted are these: in vivo.
Data set [16] deals with P388. The data set can be described thus: Antileukemic activity against mouse P388 cells allografted in mouse assessed as host survival at 25 mg/kg administered daily as single dose. Format: functional, organism-based. Set-up: dose 25 mg/kg.
For data set [17], the system named is P388. The data set can be described thus: Antileukemic activity against mouse P388 cells allografted in mouse at 50 mg/kg administered daily as single dose relative to control. Format: functional.
Data set [18] concerns Mus musculus. The data set can be described thus: Toxicity in mouse allografted with mouse P388 cells assessed as change in body weight at 50 mg/kg administered daily as single dose. Format: organism-based. The conditions noted are these: in vivo. The arrangement: dose 50 mg/kg.
In data set [19] the test system is P388. The data set can be described thus: Antileukemic activity against mouse P388 cells allografted in mouse at 100 mg/kg administered daily as single dose relative to control. Format: functional.
Data set [20] concerns Mus musculus. Briefly: Toxicity in mouse allografted with mouse P388 cells assessed as change in body weight at 100 mg/kg administered daily as single dose. The conditions noted are these: in vivo. The arrangement: dose 100 mg/kg. In kind it is organism-based.

What is called T/C is the result in the treated group divided by that in the control group, in per cent. With `[Cl-].c1cc2c3c(c1)c1cc4c(cc1c[n+]3CCC2)OCO4`, in the data set on P388 [1], the Survival result is “inactive”. For the same molecule, the Survival result in the data set on P388 [2], with P388 [3], in the data set with P388 [4] and with P388 [5] was “Active” in each case. For the same molecule, the T/C in the data set on P388 [6] was 120%; in the data set with P388 [7], 129%; in the data set with P388 [8], 126%; with P388 [9] it was 110%; with P388 [10] it was 132%. Further, the Activity in the data set with Mus musculus [11] was -3.3 g; in the data set with Mus musculus [12] it was -1.9 g; in the data set with Mus musculus [13], -1.7 g; in the data set with Mus musculus [14] it was -0.2 g; with Mus musculus [15] it was -2.4 g.

Turning to `C[n+]1cc2cc3c(cc2c2ccccc21)OCO3.[Cl-]`, the Survival entry in the data set with P388 [16], with P388 [2], in the data set on P388 [3], in the data set on P388 [4] and in the data set with P388 [5] was “Active” throughout. Further, the T/C came out at 151% with P388 [6]; 135% in the data set on P388 [7]; 129% in the data set with P388 [8]; 126% in the data set with P388 [9]; 144% in the data set with P388 [10]. In addition, the Activity in the data set with Mus musculus [11] was -2.5 g; with Mus musculus [12], -1 g; in the data set on Mus musculus [13], -0.9 g; in the data set with Mus musculus [14], -0.3 g; in the data set with Mus musculus [15], -1.3 g.

Consider `[Cl-].c1cc2c3c(c1)c1cc4c(cc1c[n+]3CC2)OCO4` [ANHYDROLYCORINIUM CHLORIDE], for which the Survival result in the data set with P388 [16], in the data set on P388 [2] and in the data set with P388 [3] was “Active” in each case. For the same molecule, the T/C with P388 [6] was 153%; in the data set with P388 [7] it was 142%; in the data set on P388 [8], 127%. The Activity with Mus musculus [11] is reported as -2.9 g; in the data set with Mus musculus [12] it was -2.1 g; in the data set on Mus musculus [13], -1.5 g.

Regarding `COc1cc2c[n+]3c4c(cccc4c2cc1OC)CCC3.[Cl-]`, the Survival result with P388 [1], in the data set on P388 [16] and in the data set with P388 [2] was “Active” in each case. Moreover, the T/C in the data set with P388 [17] is listed as 110%; in the data set on P388 [6], 108%; in the data set on P388 [7], 109%. The values for the Activity in the data set with Mus musculus [11], with Mus musculus [18] and with Mus musculus [12] were -0.1 g, -3.2 g and -1.4 g, respectively.

With `Oc1cc2c3c(c1)c1cc4c(cc1c[n+]3CC2)OCO4.[Cl-]`, the Survival result with P388 [2], in the data set on P388 [3] and with P388 [4] was “Active” throughout. The T/C in the data set on P388 [6] is 164%; in the data set on P388 [7] it was 155%; in the data set with P388 [8] it was 151%; in the data set with P388 [9], 133%. For the same molecule, the Activity with Mus musculus [11] is -3.9 g; in the data set on Mus musculus [12] it was -2.4 g; in the data set on Mus musculus [13] it was -1.7 g; in the data set on Mus musculus [14], -0.7 g.

On to `COc1cc2c[n+](C)c3ccccc3c2cc1OC.[Cl-]`, for which the Survival result in the data set on P388 [1], in the data set on P388 [16] and in the data set with P388 [2] was “Active” in each case. The T/C turned out to be 130% in the data set on P388 [17], 121% in the data set with P388 [6], 113% in the data set on P388 [7] and 123% in the data set on P388 [19]. Also, the Activity in the data set with Mus musculus [11] is listed as -1 g; in the data set with Mus musculus [18], -1.6 g; in the data set with Mus musculus [12], -1.1 g; in the data set with Mus musculus [20] it was -3.8 g.

As for `COS(=O)(=O)[O-].C[n+]1cc2ccccc2c2ccccc21`, the Survival result with P388 [1], in the data set on P388 [16], in the data set on P388 [2], with P388 [3] and in the data set with P388 [4] was “Active” each time. For the same molecule, the T/C in the data set with P388 [17] was determined as 113%; in the data set with P388 [6], 125%; in the data set on P388 [7], 120%; with P388 [8], 117%; in the data set on P388 [9] it was 108%. Besides, the Activity with Mus musculus [11] is -3.2 g; in the data set with Mus musculus [18] it was -6.4 g; with Mus musculus [12] it was -2.2 g; in the data set on Mus musculus [13] it was -1 g; with Mus musculus [14], -0.8 g.

In the case of `[O-]c1cc2c3c(c1)c1cc4c(cc1c[n+]3CC2)OCO4` [UNGEREMINE], the Survival result in the data set with P388 [1], with P388 [16], with P388 [2], with P388 [3] and in the data set on P388 [4] was “Active” in each case. Moreover, the T/C with P388 [17] is 152%; with P388 [6], 148%; in the data set with P388 [7], 148%; with P388 [8], 136%; with P388 [9] it was 133%. In addition, the Activity is listed as -2.1 g with Mus musculus [11]; -3.9 g with Mus musculus [18]; -1.9 g with Mus musculus [12]; -0.7 g in the data set on Mus musculus [13]; -0.7 g with Mus musculus [14].

For the molecule `COc1cc2c[n+]3c4c(cccc4c2cc1OC)CC3.[Cl-]`, the Survival entry in the data set on P388 [1] and with P388 [16] was “Active” in each case. The T/C in the data set with P388 [17] was 118%; in the data set with P388 [6], 108%; in the data set on P388 [19], 114%. The Activity in the data set on Mus musculus [11] is -0.9 g; in the data set with Mus musculus [18], -1.7 g; in the data set on Mus musculus [20], -5.1 g.
